# Measured values: article PMC11674377 (2024)
# Experiments:
# [1] = tested on: sildenafil aptamer molecular gate (SDF-Aptamer + 3' TGCAAT) (DNA, aptamer) ATTGCAAACCCTCTACCAACAATCGTACTCGTTCGACGTGATGCAAT; test: TMB release from aptamer-gated silica nanoparticles; details: 1 µM sildenafil; immobilised aptamer gate; about 63 ± 6.2% of TMB released; control leakage 7.2 ± 4.4%
# [2] = tested on: SDF-Aptamer (DNA, aptamer) ATTGCAAACCCTCTACCAACAATCGTACTCGTTCGACGTGA; test: fluorescent graphene oxide assay, Langmuir one-ligand fit; details: K+ 2.7 mM, Na+ 137 mM; PBS (0.01 M phosphate, pH 7.4), 25 °C; aptamer 1 µM; unbound aptamer removed with 4 mg/mL GO; salt form used not stated (b30 mentions citrate)
compound,measurement,setting,value
CCCc1nn(C)c2c(=O)[nH]c(-c3cc(S(=O)(=O)N4CCN(C)CC4)ccc3OCC)nc12,binding,[1],yes
same,KD,[2],0.2053 ± 0.0381 µM
